Test results from patent US9198890B2, “Compositions and methods for treating and preventing coronary heart disease” (priority 2011, dated 2015).
Values joined by “and” are separate entries in the source; they are usually repeats but may differ in a detail not shown here. Equal entries are not always repeated.

What was measured:
[1] = test system: elderly individuals at risk of vascular disease; test: PROSPER study: adverse events (myalgia, rhabdomyolysis, creatine kinase)
From the text: In this randomized study with 5,804 subjects, 2,913 subjects received placebo and 2,891 received Pravastatin (three of whom refused medication). […] This adverse event rate was very similar to the placebo group where 116 subjects discontinued medication because of non-fatal adverse events. […] At the 3 month visit there no subjects that had creatine kinase levels >10 the upper limits of normal.
Study Subjects: The results and the methodology used in the PROspective Study of Pravastatin in the Elderly at Risk (PROSPER) study have been previously described (see e.g., Shepherd J et al. PROspective Study of Pravastatin in the Elderly at Risk. Pravastatin in elderly individuals at risk of vascular disease (PROSPER): a randomized controlled trial. Lancet (2002) 360:1623-30 and Shepherd J et al. The design of a prospective study of Pravastatin in the Elderly at Risk (PROSPER). PROSPER Study Group. PROspective Study of Pravastatin in the Elderly at Risk. Am J Cardiol (1999) 84:1192-97).
In the present study 2,804 men and 3,000 women between the ages of 70 and 82 with pre-existing vascular disease (n=2,404) or at least one of three major vascular risk factors (diabetes n=575, smoking n=1,433, or hypertension n=3,360) were randomized to Pravastatin 40 mg/day (n=2,891) or placebo (n=2,913) and followed up on for 3.2 years, on average. […] This effect translates into an estimated 30% risk reduction in CHD events over 5 years, which is consistent with other statin trials. […] For subjects that were judged to have good compliance (i.e. taking medication more than 75% of the time), these alterations on the lipid levels were even greater: −34% […], +5% (increased HDL-C), and −13% (decreased triglycerides), respectively. […] Lipid levels were similar at onset of the study in subjects randomized to Pravastatin or placebo.

[2] = single oral dose of 40 mg, 32 subjects; cited from earlier work
[3] = 16 healthy volunteers, multiple-dose; cited from earlier work
[4] = test system: LDL-C; test: PROSPER study: lipid (LDL-C, HDL-C, triglyceride) response to Pravastatin 40 mg/day, overall and by SLCO1B1/LXRA genotype; type: in vivo, human; settings: for Adjusted mean percent LDL-cholesterol reduction: mean ± S.D.
Method: The effect of SNPs at nucleotide positions 388 (e.g. A>G) and 625 (e.g. T>C) of the SLCO1B1 gene and also at nucleotide position −115 (e.g. G>A) of the LXRA gene on responsiveness to Pravastatin in subjects of various genotypes was assessed by analyzing the correlation of different SNP genotypes with the 6 month and 12 month changes in TC and LDL-C levels in treated subjects, as shown below in Table 5. Neither the presence of the LXRA SNP at nucleotide position −115 nor the SLCO1B1 SNP at nucleotide position 388 were associated with lipid lowering. […] The percentage reductions in LDL-C given are for the 6 month time point (Table 5).
Biochemical and DNA analysis: Total cholesterol (TC), HDL-C, and triglycerides were assessed in subjects after an overnight fast at 6 months, and at 12 months, and LDL-C was calculated by the Friedewald formula, as previously described (Shepherd J et al. (2002) Lancet 360:1623-30). Apolipoprotein B (apoB) was measured only at baseline as described. DNA was isolated from cells from this cohort, and DNA from 5,783 subjects participating in this study was also available. ApoE phenotype was determined on plasma samples by Western blotting, using the method of Havekes et al. in the central laboratory of the Royal Infirmary in Glasgow, Scotland (Havekes L M et al. A rapid micro method for apolipoprotein E phenotyping directly in serum. J Lipid Res (1987) 28:455-63). Subjects were classified according to the presence of apoE2, apoE3, or apoE4 bands on gel blotting (Havekes L M et al. (1987) J Lipid Res 28:455-63).
DNA analysis was conducted by genotyping two single nucleotide polymorphisms (SNPs) of the SLCO1B1 gene—388A>G (rs2306283) and 511T>C (rs4149056)—using standard methods (e.g. Taq Man® SNPs genotyping assays by Applied Biosystems, Foster City, Calif.). The custom assay identification numbers for these analyses were C—1901697—20 and C—30633906—10, respectively. Additionally, DNA analysis was also conducted by genotyping one SNP of the LXRA gene, rs12221497, and the custom assay identification number for this analysis was C—30887860—10. The end points were ascertained after PCR amplification was performed using standard methods (e.g. an Applied Biosystems 7900 HT Sequence Detection System). Genotypes with quality scores below the 95% threshold were repeated and 5% blinded replicates for genotype determinations were performed. In addition, a total of 119 subjects (˜2.2% of the sample size) who had the apoE4/2 phenotype were excluded from these analyses, as well as 246 subjects who had missing apoE phenotype. These subjects were excluded because apoE phenotype or genotype can affect statin-induced LDL-C lowering response, as well as CHD risk, in an allele dependent manner. For example, subjects carrying the apoE4 allele having the greatest response in terms of LDL-C lowering and the highest CHD risk, however, apoE2 and apoE4 phenotype have opposite effects in this regard.
Statistical analysis: Observed genotype frequencies were compared with those expected under Hardy-Weinberg equilibrium using a χ2 test. For data analysis, multivariable analysis of covariance (ANCOVA) was performed to detect associations between the lipoprotein levels at baseline as well as changes in response to the treatment with Pravastatin at 6 months and with SLCO1B1 genotypes adjusted for gender, body mass index, age, alcohol, smoking, diabetes, apoE phenotype, and country of origin, since subjects participating in PROSPER were either from Scotland, Ireland, or the Netherlands. […]

[5] = test system: LDL-C; test: as above; type: in vivo, human; settings: mean ± S.D.
[6] = test system: elderly individuals at risk of vascular disease; test: PROSPER study: incidence of CHD death or nonfatal MI on trial; type: in vivo, human; settings: for Pravastatin HR, hazards ratio (95% confidence intervals), CHD death or nonfatal MI: Pravastatin group
Method: Statistical analysis: Observed genotype frequencies were compared with those expected under Hardy-Weinberg equilibrium using a χ2 test. For data analysis, multivariable analysis of covariance (ANCOVA) was performed to detect associations between the lipoprotein levels at baseline as well as changes in response to the treatment with Pravastatin at 6 months and with SLCO1B1 genotypes adjusted for gender, body mass index, age, alcohol, smoking, diabetes, apoE phenotype, and country of origin, since subjects participating in PROSPER were either from Scotland, Ireland, or the Netherlands. Prevalence at baseline of myocardial infarction (MI) and all types of vascular disease (history of angina, claudication, MI, stroke, transient ischemic attack, peripheral arterial disease surgery, or amputation for vascular disease more than 6 months before study entry) at baseline, as well as incidence of primary endpoints (CHD death or nonfatal MI or fatal non-fatal stroke), and all cardiovascular events (primary endpoints and coronary artery bypass grafting, coronary angioplasty, and peripheral artery surgery or angioplasty), were compared between carriers of different SLCO1B1 SNP genotypes using multivariable logistic regression analysis in all subjects and stratified by gender and treatment. All analyses were fully adjusted for age, gender, country, history of vascular disease, body mass index, history of diabetes, as well as history of hypertension, alcohol use, current smoking, and apoE phenotype. To evaluate the modifying effects of genotypes and gender on the response to treatment, gene-treatment and gene-gender interaction terms were added to the regression models. Lewontin's D value was calculated to assess the linkage disequilibrium (LD) between the two SNPs of interest (Lewontin R C. The interaction of selection and linkage. II. Optimum models. Genetics 1964; 50:757-82). There was no interaction between these SNPs and also no interaction between these SNPs and apoE genotype. All analyses were performed using SAS/STAT and SAS/Genetics [including proc haplotype procedure] (SAS Version 9.1, SAS Institute Inc., Cary, N.C.). A two-sided p<0.05 was considered statistically significant.

[7] = subjects with good compliance (medication more than 75% of the time)

SMILES: CC[C@H](C)C(=O)O[C@H]1C[C@H](O)C=C2C=C[C@H](C)[C@H](CC[C@@H](O)C[C@@H](O)CC(=O)O)[C@H]21 [Pravastatin, pravastatin]
- reported cases of myalgia ([1]; both, human, in vivo, 3.2 years): 36 cases
- association of the SLCO1B1 rs4149056 SNP with myalgia ([1]; in vivo): no association
- reported cases of rhabdomyolysis ([1]; in vivo): no reported cases
- subjects who discontinued medication because of non-fatal adverse events ([1]; of 2,888 subjects started on Pravastatin, 116 in placebo group): 107 subjects
- areas under the curve of pravastatin blood levels, CC versus wildtype TT SLCO1B1 genotype [2]: significantly greater
- plasma pravastatin levels with SLCO1B1 haplotype as compared to other haplotypes [3]: doubling
- Adjusted mean percent LDL-cholesterol reduction ([4]; 6 months, LXRA 115 G > A genotype AA): −37.4 ± 10.9%
- Adjusted mean percent LDL-cholesterol reduction ([4]; 6 months, LXRA 115 G > A genotype GA): −36.4 ± 10.7%
- Adjusted mean percent LDL-cholesterol reduction ([4]; 6 months, LXRA 115 G > A genotype GG): −36.6 ± 10.7%
- Adjusted mean percent LDL-cholesterol reduction ([4]; 6 months, SLCO1B1 388 A > G genotype AA): −36.7 ± 10.5%
- Adjusted mean percent LDL-cholesterol reduction ([4]; 6 months, SLCO1B1 388 A > G genotype AG): −36.6 ± 10.7%
- Adjusted mean percent LDL-cholesterol reduction ([4]; 6 months, SLCO1B1 388 A > G genotype GG): −36.2 ± 11.6%
- Adjusted mean percent LDL-cholesterol reduction ([4]; 12 months, LXRA 115 G > A genotype AA): −35.3 ± 11.2%
- Adjusted mean percent LDL-cholesterol reduction ([4]; 12 months, LXRA 115 G > A genotype GA): −35.1 ± 11.6%
- Adjusted mean percent LDL-cholesterol reduction ([4]; 12 months, LXRA 115 G > A genotype GG): −35.5 ± 12.1%
- Adjusted mean percent LDL-cholesterol reduction ([4]; 12 months, SLCO1B1 388 A > G genotype AA): −35.9 ± 11.2%
- Adjusted mean percent LDL-cholesterol reduction ([4]; 12 months, SLCO1B1 388 A > G genotype AG): −35.3 ± 12.3%
- Adjusted mean percent LDL-cholesterol reduction ([4]; 12 months, SLCO1B1 388 A > G genotype GG): −34.3 ± 12.8%
- Adjusted mean percent LDL-cholesterol reduction ([4]; 12 months, SLCO1B1 625 T > C genotype CC): −31.8 ± 11.7%
- Adjusted mean percent LDL-cholesterol reduction ([4]; 12 months, SLCO1B1 625 T > C genotype TC): −34.6 ± 12.5%
- HDL-C increase versus baseline ([4]; subjects placed on Pravastatin): 5%
- triglycerides decrease versus baseline ([4]; subjects placed on Pravastatin): 12%
- alteration printed as risk reduction for CHD [4, 7]: −34%
- decreased triglycerides [4, 7]: −13%
- increased HDL-C [4, 7]: +5%
- Adjusted mean percent LDL-cholesterol reduction ([5]; 6 months, SLCO1B1 625 T > C genotype CC, Pravastatin 40 mg/day): −31.8% and −31.8 ± 12.8%
- Adjusted mean percent LDL-cholesterol reduction ([5]; 6 months, SLCO1B1 625 T > C genotype TC, Pravastatin 40 mg/day): −36.0% and −36.0 ± 10.4%
- Adjusted mean percent LDL-cholesterol reduction ([5]; 6 months, SLCO1B1 625 T > C genotype TT, Pravastatin 40 mg/day): −37.0% and −37.0 ± 10.8%
- Adjusted mean percent LDL-cholesterol reduction ([5]; 12 months, SLCO1B1 625 T > C genotype TT): −35.9 ± 11.8%
- Pravastatin HR, hazards ratio (95% confidence intervals), CHD death or nonfatal MI ([6]; 388 A > G genotype AA (reference genotype)): 1
- Pravastatin HR, hazards ratio (95% confidence intervals), CHD death or nonfatal MI ([6]; 388 A > G genotype AG versus AA): 1.13
- Pravastatin HR, hazards ratio (95% confidence intervals), CHD death or nonfatal MI ([6]; 388 A > G genotype GG versus AA): 1.12
- Pravastatin HR, hazards ratio (95% confidence intervals), CHD death or nonfatal MI ([6]; 625 T > C genotype CC versus TT): 0.64
- Pravastatin HR, hazards ratio (95% confidence intervals), CHD death or nonfatal MI ([6]; 625 T > C genotype TC versus TT): 0.99
- Pravastatin HR, hazards ratio (95% confidence intervals), CHD death or nonfatal MI ([6]; 625 T > C genotype TT (reference genotype)): 1
- estimated risk reduction in CHD events ([6]; over 5 years, translated from the 3.2 year effect): 30%
